This note sets out measurements from ChEMBL document CHEMBL5126521, “Analgesic Opioid Ligand Discovery Based on Nonmorphinan Scaffolds Derived from Natural Sources” (J Med Chem, 2022).

Molecules are shown by their SMILES. Bridge positions count the residues as written; N and C are the ends. Square brackets hold non-standard residues; d marks the D form. Peptide text beside a SMILES is read from it.

Series [1] is described as follows: Stability in rat brain homogenate assessed as compound remaining measured after 90 mins relative to control. The format is ADME, tissue-based. The settings on record: read-out: Stability.
Series [2] addresses Delta-type opioid receptor (Rattus norvegicus, UniProt P33533). Put plainly: Inhibition of Wistar rat brain membrane DOP. The format is cell membranes.
For series [3], the target named is Mu-type opioid receptor (Rattus norvegicus, UniProt P33535). As to the kind of experiment: Inhibition of Wistar rat brain membrane MOP. The series is classed as cell membranes.
Another series relates to Mus musculus. As to the kind of experiment: Antinociceptive activity in Swiss albino mouse assessed tail flick response in warm water administered icv. The format is functional.
For series [4], the target named is T1, Mu-type opioid receptor (Homo sapiens, UniProt P35372). Put plainly: Agonist activity at human recombinant MOP expressed in CHO cells by calcium mobilization assay. The format is functional, cell-based.
The target in series [5] is T1, Mu-type opioid receptor. As to the kind of experiment: Displacement of [3H]DAMGO from MOP (unknown origin) stably expressed in HEK293 cells by liquid scintillation counter analysis. The series is classed as cell-based. Background: In a radioligand displacement assay an active substance lowers the binding of a labelled ligand.
The target of series [6] is T1, Mu-type opioid receptor. Put plainly: Agonist activity at MOP (unknown origin) stably expressed in HEK293 cells assessed as forskolin stimulated cAMP accumulation incubated for 30 mins by radioactivity based scintillation counter analysis. The series is classed as functional, cell-based. For orientation: Cyclic AMP is a second messenger, typically raised through Gs and lowered through Gi signalling.

The target of series [7] is T1, Mu-type opioid receptor. Put plainly: Agonist activity at MOP (unknown origin) stably expressed in HEK293 cells assessed as forskolin stimulated cAMP accumulation incubated for 30 mins by radioactivity based scintillation counter analysis relative to control. The format is functional, cell-based. The conditions noted are these: filed as agonist.
The target in series [8] is T2, Delta-type opioid receptor (Homo sapiens, UniProt P41143). Put plainly: Displacement of [3H]DPDPE from DOP (unknown origin) stably expressed in HEK293 cells by liquid scintillation counter analysis. The series is classed as cell-based.
A short description of series [9]: Stability in mouse serum assessed as half life. The format is ADME, cell-free.
Series [10] can be described thus: Stability in mouse brain homogenate assessed as half life. The format is ADME, tissue-based.
Series [11] has as its target T2, Delta-type opioid receptor. As to the kind of experiment: Binding affinity to DOP (unknown origin).
For series [12], the target named is T1, Mu-type opioid receptor. As to the kind of experiment: Binding affinity to MOP (unknown origin).

Sequence of Mu-type opioid receptor (Rattus norvegicus, UniProt P33535) (P33535 whole entry): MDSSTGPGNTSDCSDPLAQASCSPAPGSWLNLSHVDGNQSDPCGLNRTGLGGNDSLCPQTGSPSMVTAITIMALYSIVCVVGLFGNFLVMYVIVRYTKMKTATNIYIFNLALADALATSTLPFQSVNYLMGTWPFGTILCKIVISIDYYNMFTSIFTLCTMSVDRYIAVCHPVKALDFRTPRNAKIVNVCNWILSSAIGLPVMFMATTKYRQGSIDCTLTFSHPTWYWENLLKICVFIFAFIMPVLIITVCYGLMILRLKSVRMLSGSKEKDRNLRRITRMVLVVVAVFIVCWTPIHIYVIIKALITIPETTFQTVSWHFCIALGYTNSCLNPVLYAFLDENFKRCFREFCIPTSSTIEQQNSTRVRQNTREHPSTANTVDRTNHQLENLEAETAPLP
Sequence of Delta-type opioid receptor (Rattus norvegicus, UniProt P33533) (P33533 whole entry): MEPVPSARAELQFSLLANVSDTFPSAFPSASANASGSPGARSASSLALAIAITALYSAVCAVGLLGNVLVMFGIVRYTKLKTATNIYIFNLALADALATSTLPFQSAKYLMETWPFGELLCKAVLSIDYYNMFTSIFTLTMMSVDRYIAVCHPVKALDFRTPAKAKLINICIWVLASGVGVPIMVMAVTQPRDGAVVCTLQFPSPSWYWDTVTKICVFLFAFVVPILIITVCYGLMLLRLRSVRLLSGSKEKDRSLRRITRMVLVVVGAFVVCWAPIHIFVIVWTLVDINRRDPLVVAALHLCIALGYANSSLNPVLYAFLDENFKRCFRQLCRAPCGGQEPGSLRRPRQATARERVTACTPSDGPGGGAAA
T2 sequence (P41143 whole entry): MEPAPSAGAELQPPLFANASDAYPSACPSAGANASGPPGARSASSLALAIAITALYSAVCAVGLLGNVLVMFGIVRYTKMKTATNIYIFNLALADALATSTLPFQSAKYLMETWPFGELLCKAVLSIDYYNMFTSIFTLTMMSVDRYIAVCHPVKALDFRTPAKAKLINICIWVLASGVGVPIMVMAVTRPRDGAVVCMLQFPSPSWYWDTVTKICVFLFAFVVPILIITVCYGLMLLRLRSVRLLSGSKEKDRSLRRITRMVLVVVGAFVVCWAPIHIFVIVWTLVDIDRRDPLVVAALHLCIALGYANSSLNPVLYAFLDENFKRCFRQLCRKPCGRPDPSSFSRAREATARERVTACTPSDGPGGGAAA
T1 sequence (P35372 whole entry): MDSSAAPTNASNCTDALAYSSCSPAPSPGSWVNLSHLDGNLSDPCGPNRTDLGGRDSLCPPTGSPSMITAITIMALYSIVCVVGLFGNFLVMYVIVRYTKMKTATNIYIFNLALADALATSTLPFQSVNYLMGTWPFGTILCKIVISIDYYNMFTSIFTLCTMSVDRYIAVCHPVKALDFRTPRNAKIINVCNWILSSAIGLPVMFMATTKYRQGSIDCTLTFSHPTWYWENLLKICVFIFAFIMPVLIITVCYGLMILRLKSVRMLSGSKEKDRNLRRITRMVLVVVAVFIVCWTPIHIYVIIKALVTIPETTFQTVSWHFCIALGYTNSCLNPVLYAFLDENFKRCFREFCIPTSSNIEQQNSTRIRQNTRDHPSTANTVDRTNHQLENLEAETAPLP

On to `NC(=O)[C@@H]1CC(=O)NCCCC[C@@H](NC(=O)[C@@H](N)Cc2ccc(O)cc2)C(=O)N[C@@H](c2ccc(F)cc2F)C(=O)N[C@@H](c2ccccc2)C(=O)N1`, for which the remaining at […] in series [1] worked out at 93%.

With `NC(=O)[C@@H]1CC(=O)NCCCC[C@@H](NC(=O)[C@@H](N)Cc2ccc(O)cc2)C(=O)N[C@@H](c2ccc(F)cc2)C(=O)N[C@@H](c2ccccc2)C(=O)N1`, the remaining at […] in series [1] turned out to be 93%.

Take `NC(=O)[C@@H]1CC(=O)NCCCC[C@@H](NC(=O)[C@@H](N)Cc2ccc(O)cc2)C(=O)N[C@@H](c2ccccc2)C(=O)N[C@@H](c2ccc(F)cc2)C(=O)N1`: the remaining at […] in series [1] came out at 93%.

In the case of `Cc1cc(O)cc(C)c1C[C@H](N)C(=O)N[C@@H]1CCCCNC(=O)C[C@@H](C(N)=O)NC(=O)[C@H](c2ccccc2)NC(=O)[C@H](c2ccccc2)NC1=O`, the half-maximal inhibitory concentration (IC50) is 400 nM in series [2] and 0.26 nM on Mu-type opioid receptor [3]. Also, the ED50 in the series on Mus musculus was found to be 0.02 µg. Besides, at Mu-type opioid receptor [4], the EC50 was 1.73 nM. In addition, the remaining at […] in series [1] is 85%.

`Cc1ccc([C@@H]2NC(=O)[C@H](NC(=O)[C@@H](N)Cc3c(C)cc(O)cc3C)CCCCNC(=O)C[C@@H](C(N)=O)NC(=O)[C@H](c3ccccc3)NC2=O)cc1`: the results for the IC50 (in series [2]; against Mu-type opioid receptor [3]) were 156 nM and 1.43 nM, respectively. In addition, the ED50 in the series on Mus musculus worked out at 0.39 µg. Further, at Mu-type opioid receptor [4], the EC50 came out at 2.82 nM. Also, in series [1], the remaining at […] came out at 85%.

Consider `Cc1cc(O)cc(C)c1C[C@H](N)C(=O)N[C@@H]1CCCCNC(=O)C[C@@H](C(N)=O)NC(=O)[C@H](c2ccc(F)cc2F)NC(=O)[C@H](c2ccccc2)NC1=O`, for which the remaining at […] in [1] amounted to 93%.

Regarding `Cc1cc(O)cc(C)c1C[C@H](N)C(=O)N[C@@H]1CCCCNC(=O)C[C@@H](C(N)=O)NC(=O)[C@H](c2ccc(C(F)(F)F)cc2)NC(=O)[C@H](c2ccccc2)NC1=O`, the remaining at […] in series [1] came to 93%.

On to `Cc1cccc([C@@H]2NC(=O)[C@H](NC(=O)[C@@H](N)Cc3c(C)cc(O)cc3C)CCCCNC(=O)C[C@@H](C(N)=O)NC(=O)[C@H](c3ccccc3)NC2=O)c1`, for which the IC50 in series [2] stood at 116 nM; on Mu-type opioid receptor [3] it was 0.8 nM. Moreover, in the series on Mus musculus, the ED50 was 0.22 µg. Further, the EC50 on Mu-type opioid receptor [4] came to 2.95 nM. In series [1], the remaining at […] was determined as 85%.

Regarding `Cc1ccccc1[C@@H]1NC(=O)[C@H](NC(=O)[C@@H](N)Cc2c(C)cc(O)cc2C)CCCCNC(=O)C[C@@H](C(N)=O)NC(=O)[C@H](c2ccccc2)NC1=O`, the 50% inhibitory concentration (IC50) in series [2] was found to be 198 nM; against Mu-type opioid receptor [3], 1.09 nM. The compound also returned an ED50 in the series on Mus musculus of 0.03 µg. Besides, the EC50 on Mu-type opioid receptor [4] came out at 5.62 nM. The remaining at […] in [1] was 85%.

On to `C=C(C(N)=O)[C@@H](NC(=O)[C@H](Cc1c[nH]c2ccccc12)NC(=O)[C@@H](C)N(C)C(=O)[C@@H](N)Cc1ccc(O)cc1)c1ccccc1`, for which the Ki on Mu-type opioid receptor [5] was 0.58 nM; in series [8], 3990 nM. The 50% effective concentration (EC50) at Mu-type opioid receptor [6] was 2.27 nM. Also, at Mu-type opioid receptor [7], the Emax is 88.3%.

Take `Cc1ccc([C@@H]2NC(=O)[C@H](c3ccccc3)NC(=O)[C@H](NC(=O)[C@@H](N)Cc3c(C)cc(O)cc3C)CCCCNC(=O)C[C@@H](C(N)=O)NC2=O)cc1`: the values for the concentration for half-maximal inhibition (IC50) (in series [2]; at Mu-type opioid receptor [3]) were 14.9 nM and 0.02 nM, respectively. The compound also yielded an ED50 in the series on Mus musculus of 0.006 µg. Further, the half-maximal effective concentration (EC50) on Mu-type opioid receptor [4] was determined as 7.76 nM. Moreover, the remaining at […] in series [1] came to 85%.

As for `Cc1cc(O)cc(C)c1C[C@H](N)C(=O)O`, the half-life in [9] and in series [10] was not below 5 h in each case.

With `C=C(C(N)=O)[C@@H](NC(=O)[C@H](Cc1ccccc1)NC(=O)[C@@H](C)N(C)C(=O)[C@@H](N)Cc1ccc(O)cc1)c1ccccc1`, the Ki at Mu-type opioid receptor [5] amounted to 0.61 nM; in series [8] it was 4280 nM. Further, on Mu-type opioid receptor [6], the EC50 was determined as 4.39 nM. The maximal response (Emax) at Mu-type opioid receptor [7] worked out at 80.4%.

Turning to `NC(=O)[C@@H]1CC(=O)NCCCC[C@@H](NC(=O)[C@@H](N)Cc2ccc(O)cc2)C(=O)N[C@@H](c2ccccc2)C(=O)N[C@@H](c2ccc(F)cc2F)C(=O)N1`, the remaining at […] in series [1] was 93%.

On to `Cc1cccc([C@@H]2NC(=O)[C@H](c3ccccc3)NC(=O)[C@H](NC(=O)[C@@H](N)Cc3c(C)cc(O)cc3C)CCCCNC(=O)C[C@@H](C(N)=O)NC2=O)c1`, for which the IC50 stood at 18.6 nM in series [2] and 0.08 nM against Mu-type opioid receptor [3]. Besides, the ED50 in the series with Mus musculus is 0.01 µg. At Mu-type opioid receptor [4], the EC50 came out at 1.1 nM. In addition, the remaining at […] in series [1] came out at 85%.

Take `N[C@@H](Cc1ccc(O)cc1)C(=O)N[C@@H]1CCCCNC(=O)[C@H](Cc2ccccc2)NC(=O)[C@H](Cc2c[nH]c3ccccc23)NC1=O` (H-Y[dK]WF; lactam 2-C): the Ki in series [11] amounted to 38 nM; on Mu-type opioid receptor [12] it was 0.25 nM.

`Cc1cc(O)cc(C)c1C[C@H](N)C(=O)N[C@@H]1CCCCNC(=O)C[C@@H](C(N)=O)NC(=O)[C@H](c2ccccc2)NC(=O)[C@H](c2ccc(F)cc2)NC1=O`: in series [1], the remaining at […] amounted to 93%.

Turning to `C=C(C(=O)O)[C@@H](N)c1ccco1`, the half-life in series [9] and in series [10] was not below 5 h in each case.

`CN[C@H](C)C(=O)O`: the half-life in series [9] and in [10] was not below 5 h in each case.

In the case of `Cc1ccccc1[C@@H]1NC(=O)[C@H](c2ccccc2)NC(=O)[C@H](NC(=O)[C@@H](N)Cc2c(C)cc(O)cc2C)CCCCNC(=O)C[C@@H](C(N)=O)NC1=O`, the concentration for half-maximal inhibition (IC50) in series [2] was 2.05 nM; on Mu-type opioid receptor [3], 0.04 nM. Besides, the ED50 in the series on Mus musculus was 0.05 µg. For the same compound, the concentration giving a half-maximal response (EC50) at Mu-type opioid receptor [4] came out at 5.62 nM. Besides, the remaining at […] in series [1] amounted to 85%.

Turning to `Cc1cc(O)cc(C)c1C[C@H](N)C(=O)N[C@@H]1CCCCNC(=O)C[C@@H](C(N)=O)NC(=O)[C@H](c2ccc(F)cc2)NC(=O)[C@H](c2ccccc2)NC1=O`, the remaining at […] in series [1] is 93%.

Regarding `NC(=O)[C@@H]1CC(=O)NCCCC[C@@H](NC(=O)[C@@H](N)Cc2ccc(O)cc2)C(=O)N[C@@H](c2ccccc2)C(=O)N[C@@H](c2ccc(C(F)(F)F)cc2)C(=O)N1`, the remaining at […] in [1] is 93%.

With `Cc1cc(O)cc(C)c1C[C@H](N)C(=O)N[C@@H]1CCCCNC(=O)C[C@@H](C(N)=O)NC(=O)[C@H](c2ccccc2)NC(=O)[C@H](c2ccc(C(F)(F)F)cc2)NC1=O`, the remaining at […] in series [1] was determined as 93%.

In the case of `NC(=O)[C@@H]1CC(=O)NCCCC[C@@H](NC(=O)[C@@H](N)Cc2ccc(O)cc2)C(=O)N[C@@H](c2ccc(C(F)(F)F)cc2)C(=O)N[C@@H](c2ccccc2)C(=O)N1`, the remaining at […] in [1] came out at 93%.

For the compound `C=C(C(=O)O)[C@@H](N)c1ccccc1`, the half-life in series [9] and in [10] was not below 5 h in each case.

Take `C=C(C(N)=O)[C@@H](NC(=O)[C@H](Cc1ccccc1)NC(=O)[C@@H](C)N(C)C(=O)[C@@H](N)Cc1ccc(O)cc1)c1ccco1`: the inhibition constant (Ki) stood at 0.45 nM at Mu-type opioid receptor [5] and 4510 nM in series [8]. For the same compound, the EC50 on Mu-type opioid receptor [6] amounted to 4.11 nM. Besides, at Mu-type opioid receptor [7], the Emax was determined as 87.7%.

As for `C=C(C(N)=O)[C@@H](NC(=O)[C@H](Cc1c[nH]c2ccccc12)NC(=O)[C@@H](C)N(C)C(=O)[C@@H](N)Cc1ccc(O)cc1)c1ccco1`, the inhibition constant Ki at Mu-type opioid receptor [5] worked out at 0.3 nM; in series [8], 3100 nM. In addition, the concentration for a half-maximal effect (EC50) on Mu-type opioid receptor [6] was 1.45 nM. Moreover, the Emax on Mu-type opioid receptor [7] was determined as 90.6%.

Turning to `Cc1cc(O)cc(C)c1C[C@H](N)C(=O)N[C@@H]1CCCCNC(=O)C[C@@H](C(N)=O)NC(=O)[C@H](c2ccccc2)NC(=O)[C@H](c2ccc(F)cc2F)NC1=O`, in [1], the remaining at […] was found to be 93%.

The IC50 is the point on the concentration scale where inhibition reaches its midpoint. High values mean weaker potency in that assay, low ones greater potency in that assay. By EC50 is commonly meant the concentration needed to bring the measured effect to its halfway point. For orientation: Ki means a dissociation constant, usually derived from enzyme kinetics or from competition with a known ligand. Read a low Ki as higher affinity. In general, Emax refers to the maximal effect, on the per cent scale that the assay sets. For orientation: half-life means the time needed for the level to fall by half in the phase considered.
